From ChEMBL document CHEMBL3425482, “Structure-guided design and optimization of dipeptidyl inhibitors of norovirus 3CL protease. Structure-activity relationships and biochemical, X-ray crystallographic, cell-based, and in vivo studies” (J Med Chem, 2015)

test system: not listed separately; assay: Inhibition of Norovirus recombinant 3CL protease using Edans-EPDFHLQGPEDLAK-Dabcyl as substrate for 30 mins by fluorometry

Which IC50 does the source give for `CC(C)C[C@H](NC(=O)OCc1ccccc1)C(=O)N[C@@H](C[C@@H]1CCNC1=O)C(=O)C(=O)NC1CC1` here?
Its IC50 is 3400 nM.

For `O=C(N[C@@H](CC1CCCCC1)C(=O)N[C@@H](C[C@@H]1CCNC1=O)C(=O)C(=O)NC1CC1)OCc1cccc(Cl)c1`, which IC50 is on record?
Its IC50 is 250 nM.

For `CS(=O)(=O)NC(=O)[C@H](C[C@@H]1CCNC1=O)NC(=O)[C@H](CC1CCCCC1)NC(=O)OCc1cccc(Cl)c1`, which IC50 is on record?
Its IC50 is > 10000 nM.

With `CC(C)C[C@H](NC(=O)OCc1cccc(Cl)c1)C(=O)N[C@@H](C[C@@H]1CCNC1=O)C(=O)C(=O)NC1CC1` as the compound, how does the IC50 read?
Its IC50 is 5500 nM.

Which IC50 does the source give for `O=C[C@H](C[C@@H]1CCNC1=O)NC(=O)[C@@H](NC(=O)OCc1cccc(Cl)c1)C1CCCCC1` here?
Its IC50 is 5100 nM.

For `O=C[C@H](C[C@@H]1CCNC1=O)NC(=O)[C@H](CC1CCCCC1)NC(=O)OCc1cccc([N+](=O)[O-])c1`, which IC50 is on record?
The IC50 was 600 nM.

For `COc1ccccc1COC(=O)N[C@@H](CC1CCCCC1)C(=O)N[C@H](C=O)C[C@@H]1CCNC1=O`, which IC50 is on record?
Its IC50 is > 10000 nM.

Which IC50 does the source give for `O=C[C@H](C[C@@H]1CCNC1=O)NC(=O)[C@H](CC1CCCCC1)NC(=O)OCc1ccc(Cl)cc1` here?
Its IC50 is 710 nM.

For `COc1cccc(COC(=O)N[C@@H](CC2CCCCC2)C(=O)N[C@H](C=O)C[C@@H]2CCNC2=O)c1`, which IC50 is on record?
Its IC50 is 1400 nM.

For `CCOP(=O)(OCC)C(O)[C@H](C[C@@H]1CCNC1=O)NC(=O)[C@H](CC1CCCCC1)NC(=O)OCc1ccccc1Cl` (some centres not stated), which IC50 is on record?
Its IC50 is > 10000 nM.

Which IC50 does the source give for `O=C[C@H](C[C@@H]1CCNC1=O)NC(=O)[C@H](CC1CCCCC1)NC(=O)OCc1ccccc1` here?
Its IC50 is 300 nM.

Which IC50 does the source give for `O=C[C@H](C[C@@H]1CCNC1=O)NC(=O)[C@H](CC1CCCCC1)NC(=O)OCc1ccccc1Cl` here?
The IC50 was 800 nM.

Which IC50 does the source give for `O=C(N[C@@H](CC1CCCCC1)C(=O)N[C@@H](C[C@@H]1CCNC1=O)C(O)S(=O)(=O)O)OCc1cccc(I)c1` (some centres not stated) here?
Its IC50 is 150 nM.

For `O=C(N[C@@H](CC1CCCCC1)C(=O)N[C@@H](C[C@@H]1CCNC1=O)C(O)S(=O)(=O)O)OCc1cccc(Br)c1` (some centres not stated), which IC50 is on record?
The IC50 was 150 nM.

For `CC(C)C[C@H](NC(=O)OCc1ccccc1)C(=O)N[C@H](C=O)C[C@@H]1CCNC1=O`, which IC50 is on record?
Its IC50 is 600 nM.

For `O=C(N[C@@H](CC1CCCCC1)C(=O)N[C@@H](C[C@@H]1CCNC1=O)C(O)S(=O)(=O)O)OCc1cccc(Cl)c1` (some centres not stated), which IC50 is on record?
The IC50 was 100 nM.

test system: Norovirus; assay: Antiviral activity against Norovirus infected in human HG23 cells; type: functional, cell-based

For `CC(C)C[C@H](NC(=O)OCc1ccccc1)C(=O)N[C@@H](C[C@@H]1CCNC1=O)C(=O)C(=O)NC1CC1`, which EC50 is on record?
Its EC50 is 1100 nM.

With `O=C(N[C@@H](CC1CCCCC1)C(=O)N[C@@H](C[C@@H]1CCNC1=O)C(=O)C(=O)NC1CC1)OCc1cccc(Cl)c1` as the compound, how does the EC50 read?
Its EC50 is 85 nM.

Which EC50 does the source give for `CS(=O)(=O)NC(=O)[C@H](C[C@@H]1CCNC1=O)NC(=O)[C@H](CC1CCCCC1)NC(=O)OCc1cccc(Cl)c1` here?
The EC50 was > 2000 nM.

With `CC(C)C[C@H](NC(=O)OCc1cccc(Cl)c1)C(=O)N[C@@H](C[C@@H]1CCNC1=O)C(=O)C(=O)NC1CC1` as the compound, how does the EC50 read?
Its EC50 is 300 nM.

Which EC50 does the source give for `O=C[C@H](C[C@@H]1CCNC1=O)NC(=O)[C@@H](NC(=O)OCc1cccc(Cl)c1)C1CCCCC1` here?
The EC50 was 150 nM.

With `O=C[C@H](C[C@@H]1CCNC1=O)NC(=O)[C@H](CC1CCCCC1)NC(=O)OCc1cccc([N+](=O)[O-])c1` as the compound, how does the EC50 read?
Its EC50 is 150 nM.

For `COc1ccccc1COC(=O)N[C@@H](CC1CCCCC1)C(=O)N[C@H](C=O)C[C@@H]1CCNC1=O`, which EC50 is on record?
The EC50 was 100 nM.

With `O=C[C@H](C[C@@H]1CCNC1=O)NC(=O)[C@H](CC1CCCCC1)NC(=O)OCc1ccc(Cl)cc1` as the compound, how does the EC50 read?
The EC50 was 80 nM.

With `COc1cccc(COC(=O)N[C@@H](CC2CCCCC2)C(=O)N[C@H](C=O)C[C@@H]2CCNC2=O)c1` as the compound, how does the EC50 read?
Its EC50 is 150 nM.

Which EC50 does the source give for `CCOP(=O)(OCC)C(O)[C@H](C[C@@H]1CCNC1=O)NC(=O)[C@H](CC1CCCCC1)NC(=O)OCc1ccccc1Cl` (some centres not stated) here?
Its EC50 is 200 nM.

For `O=C[C@H](C[C@@H]1CCNC1=O)NC(=O)[C@H](CC1CCCCC1)NC(=O)OCc1ccccc1`, which EC50 is on record?
Its EC50 is 60 nM.

With `O=C[C@H](C[C@@H]1CCNC1=O)NC(=O)[C@H](CC1CCCCC1)NC(=O)OCc1ccccc1Cl` as the compound, how does the EC50 read?
Its EC50 is 80 nM.

For `O=C(N[C@@H](CC1CCCCC1)C(=O)N[C@@H](C[C@@H]1CCNC1=O)C(O)S(=O)(=O)O)OCc1cccc(I)c1` (some centres not stated), which EC50 is on record?
The EC50 was 40 nM.

Which EC50 does the source give for `O=C(N[C@@H](CC1CCCCC1)C(=O)N[C@@H](C[C@@H]1CCNC1=O)C(O)S(=O)(=O)O)OCc1cccc(Br)c1` (some centres not stated) here?
Its EC50 is 30 nM.

For `CC(C)C[C@H](NC(=O)OCc1ccccc1)C(=O)N[C@H](C=O)C[C@@H]1CCNC1=O`, which EC50 is on record?
Its EC50 is 200 nM.

For `O=C(N[C@@H](CC1CCCCC1)C(=O)N[C@@H](C[C@@H]1CCNC1=O)C(O)S(=O)(=O)O)OCc1cccc(Cl)c1` (some centres not stated), which EC50 is on record?
The EC50 was 20 nM.
